From patent US20250205191A1, “R(-)-MDMA COMPOSITIONS AND METHODS OF TREATMENT” (EmpathBio, Inc., priority 2023, published 2025)

Tests used:
healthy volunteers [1] = test: Phase 1 exploratory Visual Analog Scale (VAS); type: in vivo, human; settings: vs placebo; dose-dependent pattern
Description: VAS measure changes in subjective experience that are typical in healthy human volunteer studies. These include experiences such as Happy, Open, Loving, Close to Others, Sociable, and Lonely.

healthy volunteers [2] = test: Phase 1 Self-Compassion Scale (SCS); type: in vivo, human
Description: Self-compassion is defined as being open to and moved by one's own suffering, experiencing feelings of caring and kindness toward oneself, taking an understanding, non-judgmental attitude toward one's inadequacies and failures, and recognizing that one's own experience is part of the common human experience (Neff, K. D., 2003. The development and validation of a scale to measure self-compassion. Self and Identity, 2, 223-250). The Self-Compassion Scale is an assessment tool designed to measure three core components of self-compassion: self-kindness, common humanity and mindfulness. (SCS; Neff, K. D., 2011. Self-compassion: Stop beating yourself up and leave insecurity behind. New York, NY: Harper Collins) The total self-compassion score is the total of the scores of the sub-items: self-kindness, self-judgement (reversed), common humanity, isolation (reversed), mindfulness and over-identification (reversed).

healthy volunteers [3] = test: Phase 1 Multifaceted Empathy Test (MET); type: in vivo, human; settings: 75-225 mg
Description: The Multifaceted Empathy Test (MET) measures cognitive empathy (CE), explicit emotional empathy (EEE) and implicit emotional empathy (IEE).

[4] = molecular target: T1, human 5-HT2C (edited) receptor (Homo sapiens, UniProt P28335); test: 5-HT2C (edited) agonism, inositol monophosphate accumulation (HTRF), CHO-K1 recombinant cells; type: cell-based
T1 sequence (P28335 33-458): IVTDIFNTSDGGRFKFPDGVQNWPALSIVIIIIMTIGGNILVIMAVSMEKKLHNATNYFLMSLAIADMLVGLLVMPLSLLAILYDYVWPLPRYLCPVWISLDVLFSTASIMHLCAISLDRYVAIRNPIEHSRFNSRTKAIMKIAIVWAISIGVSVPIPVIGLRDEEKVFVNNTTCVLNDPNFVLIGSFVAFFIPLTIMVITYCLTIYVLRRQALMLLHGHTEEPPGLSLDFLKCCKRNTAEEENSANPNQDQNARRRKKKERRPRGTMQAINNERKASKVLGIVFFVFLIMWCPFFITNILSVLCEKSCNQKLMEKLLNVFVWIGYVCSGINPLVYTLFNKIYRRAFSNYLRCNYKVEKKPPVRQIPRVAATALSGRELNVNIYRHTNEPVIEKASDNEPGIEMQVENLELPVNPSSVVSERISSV

healthy volunteers [5] = test: Phase 1 5-Dimensions-Altered States of Consciousness (5D-ASC); type: in vivo, human; settings: 75-225 mg oral
Description: The 5D-ASC measures the acute drug effects using 5 primary dimensions and 11 lower-order scales to assess alterations in mood, perception and experience of self in relation to environment and thought disorder. The 5 dimensions include oceanic boundlessness, anxious ego dissolution, visionary restructuralization, auditory alterations, and reduction of vigilance.
A notable result illustrated by the ASC data was the reporting ratio of feelings of Oceanic Boundlessness (OB) relative to Dread of Ego Dissolution (DED). The ratio can be a useful metric as they are inversely correlated with psychedelic-mediated antidepressant efficacy (OB positively correlated, DED negatively correlated). […] The OB-DED ratio was consistent with the 11-Dimensional Altered States of Consciousness (11D-ASC).

human 5-HT2B receptor = molecular target: T2, human 5-HT2B receptor (Homo sapiens, UniProt P41595); test: 5-HT2B agonism, inositol monophosphate accumulation (HTRF), CHO-K1 recombinant cells; type: cell-based
T2 construct: expressed in transfected cells; host or cells: CHO-K1

human 5-HT2A receptor = molecular target: T3, human 5-HT2A receptor (Homo sapiens, UniProt P28223); test: 5-HT2A agonism, inositol monophosphate accumulation (HTRF), CHO-K1 recombinant cells; type: cell-based
T3 construct: expressed in transfected cells; host or cells: CHO-K1

healthy volunteers [6] = test: Phase 1 Spoken Intensity Rating Scale (SIRS); type: in vivo, human
Procedure: Beyond 8 hours postdose, mean SIRS scores remained ≤0.5 in all cohorts.

healthy volunteers [7] = test: 11-Dimensions-Altered States of Consciousness (11D-ASC); type: in vivo, human
[8] = Phase 1 clinical study, plasma pharmacokinetics; settings: for AUC0-t / Cmax / t1/2: mean (SD); for Tmax: median (minimum, maximum)
healthy volunteers [9] = test: Phase 1 Challenging Experiences Questionnaire (CEQ); type: in vivo, human; settings: 6.5 hours post dosing
Description: Seven Challenging Experiences Questionnaire (CEQ) factors (grief, fear, death, insanity, isolation, physical distress, and paranoia) provide a phenomenological profile of challenging aspects of experiences with R(−)-MDMA.

[10] = plasma analyte after oral 125 mg R(−)-MDMA, Day 9
[11] = plasma analyte after single oral 75 mg R(−)-MDMA, Day 1
[12] = plasma analyte after single oral 125 mg R(−)-MDMA, Day 1
[13] = plasma analyte after single oral 175 mg R(−)-MDMA, Day 1
[14] = plasma analyte after single oral 225 mg R(−)-MDMA, Day 1

T2 sequence (P41595 whole entry): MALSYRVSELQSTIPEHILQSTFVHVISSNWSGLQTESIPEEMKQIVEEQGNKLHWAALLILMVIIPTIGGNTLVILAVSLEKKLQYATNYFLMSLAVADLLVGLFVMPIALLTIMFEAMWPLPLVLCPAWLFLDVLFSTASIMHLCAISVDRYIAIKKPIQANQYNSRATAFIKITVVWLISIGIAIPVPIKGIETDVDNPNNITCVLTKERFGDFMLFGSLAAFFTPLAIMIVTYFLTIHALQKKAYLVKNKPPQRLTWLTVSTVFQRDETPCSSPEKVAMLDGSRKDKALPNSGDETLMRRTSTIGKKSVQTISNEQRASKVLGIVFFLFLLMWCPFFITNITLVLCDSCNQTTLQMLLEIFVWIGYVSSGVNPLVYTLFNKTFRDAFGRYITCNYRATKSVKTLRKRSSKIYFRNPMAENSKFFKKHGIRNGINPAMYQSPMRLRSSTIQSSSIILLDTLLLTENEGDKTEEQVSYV
T3 sequence (P28223 whole entry): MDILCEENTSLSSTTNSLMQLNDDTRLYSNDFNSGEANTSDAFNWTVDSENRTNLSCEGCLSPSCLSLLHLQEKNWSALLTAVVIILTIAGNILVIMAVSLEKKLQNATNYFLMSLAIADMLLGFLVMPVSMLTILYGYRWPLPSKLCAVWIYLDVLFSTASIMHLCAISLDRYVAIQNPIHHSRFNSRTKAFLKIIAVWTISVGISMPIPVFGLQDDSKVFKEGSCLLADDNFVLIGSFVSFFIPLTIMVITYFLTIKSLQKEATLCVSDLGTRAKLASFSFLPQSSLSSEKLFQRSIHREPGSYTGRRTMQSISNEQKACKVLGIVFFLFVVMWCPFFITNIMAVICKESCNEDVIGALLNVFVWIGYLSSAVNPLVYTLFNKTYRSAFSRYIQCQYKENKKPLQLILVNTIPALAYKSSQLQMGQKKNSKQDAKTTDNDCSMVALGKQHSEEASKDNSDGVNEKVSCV

## CN[C@H](C)Cc1ccc2c(c1)OCO2 [R(−)-MDMA, R(−)-3,4-methylenedioxymethamphetamine]
Healthy volunteers [1]
  VAS scores for positive affect (happy, loving, openness, less loneliness): increased VAS scores compared to placebo
Healthy volunteers [2]; 225 mg group, 1 week of follow-up
  SCS self-kindness score, mean: 4.1
Healthy volunteers [2]; 225 mg group, before dosing
  SCS self-kindness score, mean at baseline: 3.9
Healthy volunteers [2]; higher doses, 1 week of follow-up
  self-compassion (self-kindness) scores: significantly increased
Healthy volunteers [3]
  MET LSmean scores in CE negative emotions, changes from baseline: dose-dependent manner
[4]; 5-HT2C (edited) receptors
  agonism in words: high potency full agonism
[4]; 5-HT2C (edited), relative to α-Me-5-HT at its EC100
  Efficacy (% of a-Me-5-HT response): 96.6%
Healthy volunteers [5]
  5D-ASC sub-components and total score: dose-dependent increase in all measured sub-components and in the total score
Human 5-HT2B receptor; 5-HT2B receptors
  agonism in words: high potency full agonism
Human 5-HT2B receptor; 5-HT2B, CHO-K1, IP accumulation
  EC50: 53 nM
Human 5-HT2B receptor; 5-HT2B, relative to α-Me-5-HT at its EC100
  Efficacy (% of a-Me-5-HT response): 91.8%
Human 5-HT2A receptor; 5-HT2A receptors
  agonism in words: moderate potency partial agonism
Human 5-HT2A receptor; 5-HT2A, CHO-K1, IP accumulation
  EC50: 3340 nM
Human 5-HT2A receptor; 5-HT2A, relative to α-Me-5-HT at its EC100
  Efficacy (% of a-Me-5-HT response): 69.3%
Healthy volunteers [6]; 75-225 mg oral
  SIRS dose response: strong dose response
Healthy volunteers [6]; all cohorts, beyond 8 hours postdose
  mean SIRS scores: ≤ 0.5
Healthy volunteers [6]; fasted state, each cohort, 1 to 2 hours postdose
  mean SIRS scores: small nominal increases from Baseline
Healthy volunteers [7]; 225 mg dose group vs comparators of FIG. 11
  11D-ASC changed meaning of percepts: strongest
Healthy volunteers [7]; 75-225 mg oral
  11D-ASC response profile: psychedelic-like response
[8]; 125 mg fasted vs fed
  food effect: No food effect
[8]; 30 hours postdose
  mean plasma concentration at final PK assessments: remained above the lower limit of quantitation
[8]; [10]
  AUC0-t: 7229.6028 (1863.6711) h · ng/mL
  Cmax: 455.4850 (65.0461) ng/mL
  t1/2: 13.3444 (3.5309) hr
  Tmax: 2.758 (2.08, 4.02) hr
[8]; [11]
  AUC0-t: 3976.7452 (1350.4178) h · ng/mL
  Cmax: 275.8217 (90.7390) ng/mL
  t1/2: 9.2622 (2.5227) hr
  Tmax: 3.000 (2.02, 3.00) hr
[8]; [12]
  AUC0-t: 7135.8809 (1245.2963) h · ng/mL
  Cmax: 425.2550 (62.4569) ng/mL
  t1/2: 11.8615 (1.9947) hr
  Tmax: 3.517 (1.50, 4.02) hr
[8]; [13]
  AUC0-t: 10007.8882 (2324.8851) h · ng/mL
  Cmax: 617.3440 (158.9596) ng/mL
  t1/2: 12.2009 (1.4988) hr
  Tmax: 4.000 (3.00, 6.02) hr
[8]; [14]
  AUC0-t: 14453.1811 (3684.7488) h · ng/mL
  Cmax: 828.6450 (213.1377) ng/mL
  t1/2: 14.0772 (3.2340) hr
  Tmax: 5.000 (3.00, 6.02) hr
Healthy volunteers [9]
  CEQ changes from baseline: clear dose-dependent response with statistical significance at higher doses
